For series [1], the system named is Saccharomyces cerevisiae wild type BY4741. As to the kind of experiment: MIC determination in Saccharomyces cerevisiae wild type BY4741. It counts as cell-based. The conditions noted are these: for MIC: read-out: MIC; for times more active than AmB (MIC): relative to AmB. Here is the method: (§1) In Vitro Antifungal Activity. MIC values for various strains were determined in accordance with the standard protocol from the National Committee of Clinical Laboratory Standards but using YEPD liquid medium instead of RPMI-1640 medium (National Committee of Clinical Laboratory Standards (Reference Method for Broth Dilution Antifungal Susceptibility Testing of Yeast, M27-A2, Approved Standard-Second Edition, Volume 22, Number 15, 1995). AmB was used as a reference. The strains were cultivated overnight in 5 mL YEPD liquid medium at 30 to 37° C. (30° C. for the strain BY4741; 37° C. for the strain DSY1764) with constant shaking. The saturated cultures were diluted to an ODB600 of 0.1 (3×10P^7 cells/mL). Using 24 wells plate, each well was prepared by adding 1% (12 μL) of DMSO solution of the tested polyene macrolide with 1% (12 μL) yeast cells solution and completed with YEPD (1.176 mL). The plates were sealed with Parafilm and then incubated for 18 to 36 hours at 30 to 37° C. (18 hours at 30° C. for the strain BY4741; 36 hours at 37° C. for the strain DSY1764). The optical density was read at 600 nm using 1.5 mL cuvettes. The MIC value was defined as the drug concentration needed to inhibit growth, less than 5% compared to a drug-free culture.
MIC values of various polyene macrolides of the invention in Saccharomyces cerevisiae wild type BY4741, a derivative of S288C, (with AmB as a reference) were determined as described hereinabove.
Based on the remarkable performance observed with the Diamine-AmB conjugate similar modifications of the aminosugar moiety were made on other polyene macrolides, such as for example Nystatin (1b) and Pimaricin (1c). The antifungal activity of these nystatin and pimaricin conjugates bearing two aminopropyl side chains was measured using Saccharomyces cerevisiae wild type BY4741.

A further series deals with DSY-296 C. albican CI. As to the kind of experiment: MIC determination in Candida strain DSY-296. It counts as cell-based, Candida albicans. To be noted: Candida albicans. As for the experimental part: as §1
(§2) MIC values of the polyene macrolides 3, 9 and 10 (Diamine-AmB and its ester and diamide derivative, respectively) in various Candida strains including an AmB-resistant strain C. albicans (DSY1764, with the genotype erg3AΔ::hisG/erg3BΔ::hisG erg11Δ::hisG/erg11Δ::hisG-URA3-hisG) were determined.

Another series concerns human erythrocytes. As to the kind of experiment: Hemolytic assay (EH50). It counts as cell-based. To be noted: concentration that led to 50% hemolysis of human erythrocytes; one hour at 37° C. Here is the method:
Hemolytic Assay. The hemotoxicity of the polyene macrolide derivatives of the invention was determined by measuring the toxicity towards human erythrocytes (EH50 value) using an established assay (Kinsky, S. C. et al., Biochem. Biophys. Res. Comm. 1962, 9, 503). Human blood, anticoagulated with citrate or EDTA, was centrifuged (2000×g) at 4° C. for 10 minutes. The pellets were washed three times with PBS buffer (pH 7.2 with 2 g/L glucose) and then diluted to a concentration of 4% (4×10^8 cells/mL). All experiments were done in triplo and the total volume for the hemolysis tubes was 1.4 ml. The solutions were prepared by adding 1% (14 μL) of DMSO solution of the tested compound with […] of PBS buffer and completed with 750 μL of 4% erythrocytes. After one hour incubation at 37° C., the samples were centrifuged (1500×g) at 4° C. for 5 min and the absorbance of the supernatant was measured at 560 nm. The concentration that led to 50% hemolysis (EH50) was intrapolated graphically. The value for the 100% hemolysis was obtained by the treatment with 100 μM of AmB.
The toxicity of AmB (1a) and the polyene macrolides 3, 9 and 10 towards human erythrocytes was examined using the above described hemolysis assay (Table 3).

The nature of series [2]: K+ efflux assay, ergosterol containing vesicles. The conditions noted are these: lower concentration, 0.1 μM (FIG. 3a,c,e,g). Here is the method:
FIG. 3. K^+ efflux from vesicles (LUVET100) prepared from […] (POPC) (solid line) or POPC with sterols (dotted line) for ergosterol and (broken line) for cholesterol caused by AmB (1a) (FIGS. 3a,b) and AmB diamine 3 (FIG. 3c,d), AmB diamine ester 9 (FIG. 3e,f) and AmB diamine amide 10 (FIG. 3g,h), added in DMSO to a suspension of vesicles to give final concentrations of 0.1 μM (FIG. 3a,c,e,g) and 1.0 μM (FIG. 3b,d,f,h).
K+ efflux assay. The K^+ efflux measurements were made following a previously described procedure (Zumbuehl, A. et al., Angew. Chem. Int. Ed. 2004, 43, 5181-5185; Zumbuehl, A. et al., Org. Lett. 2004, 6, 3683-3686). The appropriate liposome suspensions were prepared using POPC, cholesterol and ergosterol. Then the liposomes were sized by extrusion through two 400 nm, 200 nm, and finally 100 nm pore size membrane. The resultant “100 nm” unilamellar liposomes were dialyzed against 600 mL of 150 mM NaCl, 5 mM HEPES (pH 7.4) buffer. After, the suspension was diluted with 150 mM NaCl, 5 mM HEPES (pH 7.4) buffer to 1 mM overall lipid concentration (phospholipids+sterols). For each efflux measurement 10 mL of this liposome suspension was placed in a small beaker. Potentiometric measurements were performed with a 16-channel electrode monitor in magnetically stirred solutions at ambient temperature. The reference electrode was a Metrohm double junction Ag/AgCl reference electrode with 3 M KCl as reference electrolyte and 1 M LiOAc as bridge electrolyte. […] The resulting reading (taken after 0.5 h) was used to quantify the 100% K+-release.
As described hereinbefore differential interaction between ergosterol found in fungal membranes and cholesterol in mammalian cells is considered the basis for the selectivity of AmB (1a) as an antifungal agent. The preferential stabilization of ion channel formation in the membrane by ergosterol ultimately results in electrolyte leakage which can be conveniently measured by K^+ efflux from sterol containing vesicles. […]

In series [3] the test system is DSY-654 C. albican mutant cdr1/2. The series can be described thus: MIC determination in Candida strain DSY-654. The series is classed as cell-based, Candida albicans. The conditions noted are these: Candida albicans. Here is the method:
as §1, §2

Setting [4] is: Saccharomyces cerevisiae wild type BY4741, YEPD liquid medium, 18 hours at 30° C.
Where [5] appears, read: Saccharomyces cerevisiae wild type BY4741.
[6] abbreviates: Saccharomyces cerevisiae, Table 3, strain not given, values as in Table 1 (S. cerevisiae BY4741).

The source of these data is patent US20090186838A1, “Amphotericin Derivatives” (Eidgenössische Technische Hochschule Zürich, priority 2006, published 2009).

Values after ≈ are worked out from the molar mass of the structure shown. Like-named read-outs stand apart in the source and are kept apart here.

Usually MIC stands for the lowest concentration that inhibits growth of the organism. `C[C@@H]1[C@H](O)[C@@H](C)/C=C/C=C/C=C/C=C/C=C/C=C/C=C/[C@H](O[C@@H]2O[C@H](C)[C@@H](O)[C@H](N(CCCN)CCCN)[C@@H]2O)CC2O[C@](O)(C[C@@H](O)C[C@@H](O)[C@H](O)CC[C@@H](O)C[C@@H](O)CC(=O)O[C@H]1C)C[C@H](O)[C@H]2C(=O)NCCN` [compound 10, 16-(N′-(2-Aminoethyl)-carboxamide)-N,N-di-(3-aminopropyl)-AmB]: the values for the MIC (in series [1] (setting [4]); in series [1] (setting [6]); in the series on DSY-296 C. albican CI) were 0.04 µM (≈ 0.0432 µg/mL), 0.04 µM (≈ 0.0432 µg/mL) and 0.75 µM (≈ 0.81 µg/mL), respectively. In addition, in series [1] (setting [5]), the “times more active than AmB (MIC)” value is recorded as 7.5 times. In the series with human erythrocytes, this molecule yielded an EH50 of 30 µM. Further, the “K+ efflux with ergosterol containing vesicles” value in series [2] was “observed exclusively with the ergosterol containing vesicles”.

Turning to `COC(=O)[C@H]1[C@@H]2C[C@@H](O[C@@H]3O[C@H](C)[C@@H](O)[C@H](N(CCCN)CCCN)[C@@H]3O)/C=C/C=C/C=C/C=C/C=C/C=C/C=C/[C@H](C)[C@@H](O)[C@@H](C)[C@H](C)OC(=O)C[C@H](O)C[C@H](O)CC[C@@H](O)[C@H](O)C[C@H](O)C[C@](O)(C[C@@H]1O)O2` [compound 9, N,N-Di-(3-aminopropyl)-AmB Methyl Ester], the minimum inhibitory concentration (MIC) came out at 0.1 µM (≈ 0.105 µg/mL) in series [1] (setting [4]), 0.1 µM (≈ 0.105 µg/mL) in series [1] (setting [6]), 0.1 µM (≈ 0.105 µg/mL) in the series with DSY-296 C. albican CI and 0.25 µM (≈ 0.263 µg/mL) in series [3]. Also, the “times more active than AmB (MIC)” value in series [1] (setting [5]) worked out at 3 times. In addition, in the series on human erythrocytes, the EH50 worked out at 50 µM. In addition, the “K+ efflux with ergosterol containing vesicles” value in series [2] is given as “observed exclusively with the ergosterol containing vesicles”.
